{"source": "paper PMC8688152", "about": "“Distinct classes of potassium channels fused to GPCRs as electrical signaling biosensors” (Cell Reports Methods, 2021)", "key": {"[1]": {"molecular_target": "T1, M2_Kcv-09-03 (UniProt P08172+Q84568)", "T1 construct": "expressed in transfected cells; host or cells: Xenopus oocytes (mRNA injection)", "T1 sequence (P08172+Q84568 with tags, fused parts or gaps)": "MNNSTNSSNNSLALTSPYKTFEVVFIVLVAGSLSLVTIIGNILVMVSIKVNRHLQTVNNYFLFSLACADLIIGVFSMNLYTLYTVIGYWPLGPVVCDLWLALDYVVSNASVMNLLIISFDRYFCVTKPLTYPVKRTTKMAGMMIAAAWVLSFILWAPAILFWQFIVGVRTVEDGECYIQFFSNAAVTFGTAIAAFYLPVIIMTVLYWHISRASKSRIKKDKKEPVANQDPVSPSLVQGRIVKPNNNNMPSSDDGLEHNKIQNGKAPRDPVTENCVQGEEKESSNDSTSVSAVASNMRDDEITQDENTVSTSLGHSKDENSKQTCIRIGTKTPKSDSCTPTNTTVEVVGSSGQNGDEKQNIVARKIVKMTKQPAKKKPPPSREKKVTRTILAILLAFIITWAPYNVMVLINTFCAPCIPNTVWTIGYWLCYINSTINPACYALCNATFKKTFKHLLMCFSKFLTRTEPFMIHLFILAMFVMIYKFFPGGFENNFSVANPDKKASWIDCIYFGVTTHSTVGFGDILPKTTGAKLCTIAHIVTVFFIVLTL", "assay": "TEVC recording of M2_Kcv-09-03 ICCR expressed in Xenopus oocytes", "assay_type": "cell-based, human (M2), Paramecium bursaria chlorella virus 1 (Kcv)", "protocol": "(§1) Microelectrodes were filled with […]. […] The membrane voltage was clamped to −50 mV."}, "[2]": {"molecular_target": "T2, M2_T-00-40 (UniProt P08172+P97438)", "T2 construct": "full-length (−00) or M2 deleted of its last nine residues (−09) in the indicated ICCRs; expressed in transfected cells; host or cells: Xenopus oocytes (mRNA injection)", "assay": "TEVC recording of M2_T-00-40 ICCR in Xenopus oocytes", "assay_type": "cell-based, human (M2), mouse (TREK-1)", "details": "91 mM K+, Vm = −50 mV, mean ± SEM", "protocol": "as §1"}, "[3]": {"molecular_target": "T3, M2_T-00-46 (UniProt P08172+P97438)", "T3 construct": "full-length (−00) or M2 deleted of its last nine residues (−09) in the indicated ICCRs; expressed in transfected cells; host or cells: Xenopus oocytes (mRNA injection); gene synthesized by GeneCust", "assay": "TEVC recording of M2_T-00-46 ICCR in Xenopus oocytes", "assay_type": "cell-based, human (M2), mouse (TREK-1)", "details": "91 mM K+, Vm = −50 mV, mean ± SEM", "protocol": "as §1"}, "[4]": {"molecular_target": "T4, M2_T-09-40 (UniProt P08172+P97438)", "T4 construct": "expressed in transfected cells; host or cells: Xenopus oocytes (mRNA injection)", "assay": "TEVC recording of M2_T-09-40 in Xenopus oocytes", "assay_type": "cell-based, human (M2), mouse (TREK-1)", "details": "ACh 5 μM", "protocol": "as §1"}, "[5]": {"molecular_target": "T5, M2_T-09-43 (UniProt P08172+P97438)", "T5 construct": "expressed in transfected cells; host or cells: Xenopus oocytes (mRNA injection); gene synthesized by ATG:biosynthetics", "assay": "TEVC recording of M2_T-09-43 in Xenopus oocytes", "assay_type": "cell-based, human (M2), mouse (TREK-1)", "details": "ACh 5 μM", "protocol": "as §1"}, "[6]": {"test_system": "M2[T4L]_T-00-43", "assay": "TEVC recording of G protein-uncoupled M2[T4L]_T-00-43", "assay_type": "cell-based, human (M2), mouse (TREK-1)", "details": "5 μM ACh", "protocol": "as §1"}, "[7]": {"molecular_target": "T6, M2_T-00-43 S300A S333A (UniProt P08172+P97438, S315A/S348A)", "T6 construct": "full-length (−00) or M2 deleted of its last nine residues (−09) in the indicated ICCRs; expressed in transfected cells; host or cells: Xenopus oocytes (mRNA injection); gene synthesized by GeneCust", "assay": "TEVC recording of phosphorylation-deficient M2_T-00-43 S300A S333A", "assay_type": "cell-based, human (M2), mouse (TREK-1)", "details": "ACh 5 μM", "protocol": "as §1"}, "[8]": {"molecular_target": "T7, M2_T(G293E)-00-40 (UniProt P08172+P97438, G308E)", "T7 construct": "full-length (−00) or M2 deleted of its last nine residues (−09) in the indicated ICCRs; expressed in transfected cells; host or cells: Xenopus oocytes (mRNA injection)", "assay_type": "cell-based, human (M2), mouse (TREK-1)", "details": "ACh 5 μM; TEVC, Xenopus oocytes; mean ± SEM", "protocol": "as §1"}, "[9]": {"molecular_target": "unfused Kcv (Paramecium bursaria Chlorella virus 1, UniProt Q84568)", "assay": "TEVC controls: unfused Kcv co-expressed with M2, and Kcv alone", "assay_type": "cell-based", "details": "co-expression of unfused M2 and Kcv, and Kcv alone", "protocol": "as §1"}, "[10]": {"test_system": "M2_Kir6.2-09-25", "parameters": "method as in Moreau et al., 2017", "details": "Kir6.2 ICCRs; ref Moreau et al., 2017; read-out: IC50 observed with Kir6.2 ICCRs; cited from earlier work"}}, "data": [{"smiles": "CC(=O)OCC[N+](C)(C)C", "note": "[ACh, acetylcholine]", "values": [{"measurement": "Hill coefficient (nH) on M2_Kcv-09-03", "setting": "[1]; concentration-effect curve, TEVC", "value": 0.37}, {"measurement": "inhibition at 5 µM", "setting": "[1]; read-out: inhibition: % of current change induced by ACh 5 μM on M2_Kcv-09-03, 5 μM, Xenopus oocytes, 91 mM K+, Vm = −50 mV, printed as inhibition, mean ± SEM", "value": 53.4, "unit": "%"}, {"measurement": "activation: % of current change induced by ACh 5 μM on M2_T-00-40", "setting": "[2]", "value": "20.2% ± 3.5%"}, {"measurement": "activation: % of current change induced by ACh 5 μM on M2_T-00-46", "setting": "[3]", "value": "35.2% ± 1.6%"}, {"measurement": "regulation of M2_T-09-40 by ACh", "setting": "[4]", "value": "no significant regulation"}, {"measurement": "regulation of M2_T-09-43 by ACh", "setting": "[5]", "value": "no significant regulation"}, {"measurement": "activation of G protein-uncoupled M2[T4L]_T-00-43 by ACh", "setting": "[6]", "value": "still activated by ACh with the same amplitude as WT"}, {"measurement": "activation of the S300A S333A double mutant of M2_T-00-43 by ACh", "setting": "[7]", "value": "preserved activation"}, {"measurement": "activation induced by ACh on the hyperactive G293E mutant of M2_T-00-40", "setting": "[8]", "value": "32.5% ± 3.6%"}, {"measurement": "regulation of unfused Kcv by ACh", "setting": "[9]", "value": "absence of regulation"}, {"measurement": "IC50", "setting": "[10]", "value": 1250, "unit": "nM"}]}]}
